Source: ChEMBL document CHEMBL1146833, “A novel series of potent and selective IKK2 inhibitors” (Bioorg Med Chem Lett, 2004)
Values joined by “and” are separate entries in the source; they are usually repeats but may differ in a detail not shown here. Identical values can stand only once.

How the values were obtained:
[1] = molecular target: T1, Inhibitor of nuclear factor kappa-B kinase subunit beta (Homo sapiens, UniProt O14920); assay: Inhibitory activity against IKK2
T1 sequence (O14920 whole entry): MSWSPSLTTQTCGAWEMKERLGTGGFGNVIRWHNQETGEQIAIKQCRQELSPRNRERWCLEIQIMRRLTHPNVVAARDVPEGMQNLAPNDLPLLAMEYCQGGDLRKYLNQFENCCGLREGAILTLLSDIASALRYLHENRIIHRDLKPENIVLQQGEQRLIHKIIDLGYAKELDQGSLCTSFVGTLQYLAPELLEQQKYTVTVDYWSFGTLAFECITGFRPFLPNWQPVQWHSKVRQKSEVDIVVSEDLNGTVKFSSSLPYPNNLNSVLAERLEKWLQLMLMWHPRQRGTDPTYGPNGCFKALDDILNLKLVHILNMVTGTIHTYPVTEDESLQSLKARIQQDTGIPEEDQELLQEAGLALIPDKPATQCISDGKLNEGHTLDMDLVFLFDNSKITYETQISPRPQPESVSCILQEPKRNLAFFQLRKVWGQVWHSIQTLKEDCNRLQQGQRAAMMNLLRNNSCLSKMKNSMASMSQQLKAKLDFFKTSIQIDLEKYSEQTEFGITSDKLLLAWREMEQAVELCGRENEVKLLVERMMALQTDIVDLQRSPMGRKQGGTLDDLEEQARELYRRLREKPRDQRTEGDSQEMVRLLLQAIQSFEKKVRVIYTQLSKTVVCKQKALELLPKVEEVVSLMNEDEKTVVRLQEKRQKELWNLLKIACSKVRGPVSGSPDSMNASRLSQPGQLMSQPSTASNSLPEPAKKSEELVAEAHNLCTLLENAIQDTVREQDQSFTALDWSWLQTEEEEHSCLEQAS

Homo sapiens = species on record: Homo sapiens; assay: Selectivity for IKK2/IKK1
[2] = molecular target: T2, Inhibitor of nuclear factor kappa-B kinase subunit alpha (Homo sapiens, UniProt O15111); assay: Inhibitory activity against IKK1
T2 sequence (O15111 whole entry): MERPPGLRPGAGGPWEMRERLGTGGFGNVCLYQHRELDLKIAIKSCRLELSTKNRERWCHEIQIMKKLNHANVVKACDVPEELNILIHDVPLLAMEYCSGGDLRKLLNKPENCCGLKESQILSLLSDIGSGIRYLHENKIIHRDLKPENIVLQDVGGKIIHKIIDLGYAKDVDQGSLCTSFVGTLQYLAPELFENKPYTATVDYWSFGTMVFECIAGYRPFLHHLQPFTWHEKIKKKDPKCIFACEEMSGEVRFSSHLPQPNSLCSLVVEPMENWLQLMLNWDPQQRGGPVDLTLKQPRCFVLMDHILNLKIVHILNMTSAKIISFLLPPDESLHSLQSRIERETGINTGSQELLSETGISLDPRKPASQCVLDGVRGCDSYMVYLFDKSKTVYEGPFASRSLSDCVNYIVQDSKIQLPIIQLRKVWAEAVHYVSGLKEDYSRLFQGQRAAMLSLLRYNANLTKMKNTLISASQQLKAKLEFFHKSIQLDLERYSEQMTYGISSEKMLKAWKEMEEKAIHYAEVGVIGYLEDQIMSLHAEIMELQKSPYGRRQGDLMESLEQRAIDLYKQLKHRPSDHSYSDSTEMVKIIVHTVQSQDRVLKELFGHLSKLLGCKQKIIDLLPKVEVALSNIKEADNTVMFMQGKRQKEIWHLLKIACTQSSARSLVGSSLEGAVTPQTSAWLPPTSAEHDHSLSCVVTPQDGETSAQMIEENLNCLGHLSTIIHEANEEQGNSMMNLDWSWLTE

Row | Compound | IC50 [1] | Selectivity (Homo sapiens) | IC50 [2] [nM]
1 | CC(=O)c1cc2cc(-c3ccc(Nc4nccc(-c5ccc(S(=O)(=O)N6CCNCC6)cc5)n4)cc3)ccc2o1 | 26 nM | 65 | 1700
2 | O=S(=O)(c1ccc(-c2ccnc(Nc3ccc(C(F)(F)F)cc3)n2)cc1)N1CCNCC1 | 513 nM | 8 | 3980
3 | O=S(=O)(c1ccc(-c2ccnc(Nc3ccccc3)n2)cc1)N1CCNCC1 | 91 nM | 13 | 1170
4 | N#Cc1cccc(Nc2nccc(-c3ccc(S(=O)(=O)N4CCNCC4)cc3)n2)c1 | 83 nM | 62 | 5130
5 | O=S(=O)(c1ccc(-c2ccnc(Nc3cc(F)cc(F)c3)n2)cc1)N1CCNCC1 | 117 nM | – | 4070
6 | COc1cc(Nc2nccc(-c3ccc(S(=O)(=O)N4CCNCC4)cc3)n2)cc(OC)c1OC | 145 nM | 1 | 155
7 | COc1ccc(Nc2nccc(-c3ccc(S(=O)(=O)N4CCNCC4)cc3)n2)cc1 | 214 nM | – | 1230
8 | NC(=O)c1c[nH]c2ccc(-c3ccc(Nc4nccc(-c5ccc(S(=O)(=O)N6CCNCC6)cc5)n4)cc3)cc12 | 550 nM and 146 nM | 6 | –
9 | CCCCc1ccc(Nc2nccc(-c3ccc(S(=O)(=O)N4CCNCC4)cc3)n2)cc1 | 309 nM | 9 | 2690
10 | NC(=O)Nc1ccc(Nc2nccc(-c3ccc(S(=O)(=O)N4CCNCC4)cc3)n2)cc1 | 155 nM | 10 | 1480

Second part, the compound after the results:

Row | IC50 [1] | Selectivity (Homo sapiens) | IC50 [2] [nM] | Compound
11 | 48 nM | 83 | 3980 | NC(=O)c1ccc(Nc2nccc(-c3ccc(S(=O)(=O)N4CCNCC4)cc3)n2)cc1
12 | 269 nM | – | 2090 | Cc1ccc(Nc2nccc(-c3ccc(S(=O)(=O)N4CCNCC4)cc3)n2)cc1
13 | 91 nM | 26 | 2340 | C[S+]([O-])c1ccc(Nc2nccc(-c3ccc(S(=O)(=O)N4CCNCC4)cc3)n2)cc1 (stereo unspecified)
14 | 66 nM | 105 | 6920 | O=[N+]([O-])c1ccc(Nc2nccc(-c3ccc(S(=O)(=O)N4CCNCC4)cc3)n2)cc1
15 | 11 nM | 21 | 245 | NS(=O)(=O)c1ccc(Nc2nccc(-c3ccc(S(=O)(=O)N4CCNCC4)cc3)n2)cc1
